Test results reported in the NIST ThermoML archive (doi:10.1021/je100315g).
± gives the expanded uncertainty stated by the source.

Experiment: xn = mol fraction of the nth substance listed
Conditions: 101 kPa, Liquid

CCCC[n+]1ccn(C)c1.O=S(=O)([N-]S(=O)(=O)C(F)(F)F)C(F)(F)F + CC#N
mass density (293.15 K, x1 = 0.0971): 1034.65 ± 0.52 kg/m3
mass density (293.15 K, x1 = 0.2033): 1175.45 ± 0.63 kg/m3
mass density (293.15 K, x1 = 0.2989): 1252.06 ± 0.71 kg/m3
mass density (293.15 K, x1 = 0.471): 1335.15 ± 0.79 kg/m3
mass density (293.15 K, x1 = 0.6261): 1380.43 ± 0.8 kg/m3
mass density (293.15 K, x1 = 0.7423): 1404.79 ± 0.8 kg/m3
mass density (293.15 K, x1 = 0.8983): 1429.03 ± 0.81 kg/m3
mass density (293.15 K, x1 = 1): 1441.63 ± 0.82 kg/m3
mass density (298.15 K, x1 = 0.0971): 1029.33 ± 0.39 kg/m3
mass density (298.15 K, x1 = 0.2033): 1170.35 ± 0.61 kg/m3
mass density (298.15 K, x1 = 0.2989): 1247.09 ± 0.7 kg/m3
mass density (298.15 K, x1 = 0.471): 1330.18 ± 0.78 kg/m3
mass density (298.15 K, x1 = 0.6261): 1375.57 ± 0.79 kg/m3
mass density (298.15 K, x1 = 0.7423): 1400.01 ± 0.79 kg/m3
mass density (298.15 K, x1 = 0.8983): 1424.12 ± 0.8 kg/m3
mass density (298.15 K, x1 = 1): 1436.83 ± 0.81 kg/m3
mass density (303.13 K, x1 = 0.0971): 1024.05 ± 0.38 kg/m3
mass density (303.13 K, x1 = 0.2033): 1165.12 ± 0.6 kg/m3
mass density (303.13 K, x1 = 0.2989): 1242.32 ± 0.69 kg/m3
mass density (303.13 K, x1 = 0.471): 1325.41 ± 0.77 kg/m3
mass density (303.13 K, x1 = 0.6261): 1370.72 ± 0.78 kg/m3
mass density (303.13 K, x1 = 0.7423): 1395.36 ± 0.79 kg/m3
mass density (303.13 K, x1 = 0.8983): 1419.28 ± 0.8 kg/m3
mass density (303.13 K, x1 = 1): 1431.98 ± 0.81 kg/m3
mass density (308.15 K, x1 = 0.0971): 1019.47 ± 0.38 kg/m3
mass density (308.15 K, x1 = 0.2033): 1160.25 ± 0.6 kg/m3
mass density (308.15 K, x1 = 0.2989): 1237.21 ± 0.68 kg/m3
mass density (308.15 K, x1 = 0.471): 1320.49 ± 0.76 kg/m3
mass density (308.15 K, x1 = 0.6261): 1365.88 ± 0.77 kg/m3
mass density (308.15 K, x1 = 0.7423): 1390.45 ± 0.78 kg/m3
mass density (308.15 K, x1 = 0.8983): 1414.54 ± 0.79 kg/m3
mass density (308.15 K, x1 = 1): 1427.16 ± 0.8 kg/m3
mass density (313.15 K, x1 = 0.0971): 1014.26 ± 0.58 kg/m3
mass density (313.15 K, x1 = 0.2033): 1155.05 ± 0.62 kg/m3
mass density (313.15 K, x1 = 0.2989): 1232.4 ± 0.69 kg/m3
mass density (313.15 K, x1 = 0.471): 1315.67 ± 0.77 kg/m3
mass density (313.15 K, x1 = 0.6261): 1361.14 ± 0.77 kg/m3
mass density (313.15 K, x1 = 0.7423): 1385.64 ± 0.77 kg/m3
mass density (313.15 K, x1 = 0.8983): 1409.73 ± 0.78 kg/m3
mass density (313.15 K, x1 = 1): 1422.36 ± 0.79 kg/m3

CCn1cc[n+](C)c1.O=S(=O)([N-]S(=O)(=O)C(F)(F)F)C(F)(F)F + CC#N
mass density (293.15 K, x1 = 0.0533): 946.96 ± 0.45 kg/m3
mass density (293.15 K, x1 = 0.1886): 1183.76 ± 0.72 kg/m3
mass density (293.15 K, x1 = 0.337): 1316.94 ± 0.83 kg/m3
mass density (293.15 K, x1 = 0.4724): 1390.06 ± 0.88 kg/m3
mass density (293.15 K, x1 = 0.652): 1452.53 ± 0.91 kg/m3
mass density (293.15 K, x1 = 0.8245): 1492.64 ± 0.92 kg/m3
mass density (293.15 K, x1 = 0.924): 1510.36 ± 0.94 kg/m3
mass density (293.15 K, x1 = 1): 1522.08 ± 0.95 kg/m3
mass density (298.15 K, x1 = 0.0533): 941.54 ± 0.39 kg/m3
mass density (298.15 K, x1 = 0.1886): 1178.5 ± 0.64 kg/m3
mass density (298.15 K, x1 = 0.337): 1311.68 ± 0.82 kg/m3
mass density (298.15 K, x1 = 0.4724): 1384.82 ± 0.87 kg/m3
mass density (298.15 K, x1 = 0.652): 1447.4 ± 0.9 kg/m3
mass density (298.15 K, x1 = 0.8245): 1487.58 ± 0.92 kg/m3
mass density (298.15 K, x1 = 0.924): 1505.26 ± 0.93 kg/m3
mass density (298.15 K, x1 = 1): 1516.96 ± 0.94 kg/m3
mass density (303.13 K, x1 = 0.0533): 936.1 ± 0.4 kg/m3
mass density (303.13 K, x1 = 0.1886): 1173.4 ± 0.63 kg/m3
mass density (303.13 K, x1 = 0.337): 1306.48 ± 0.81 kg/m3
mass density (303.13 K, x1 = 0.4724): 1379.62 ± 0.87 kg/m3
mass density (303.13 K, x1 = 0.652): 1442.24 ± 0.89 kg/m3
mass density (303.13 K, x1 = 0.8245): 1482.39 ± 0.91 kg/m3
mass density (303.13 K, x1 = 0.924): 1500.2 ± 0.92 kg/m3
mass density (303.13 K, x1 = 1): 1511.85 ± 0.93 kg/m3
mass density (308.15 K, x1 = 0.0533): 930.61 ± 0.41 kg/m3
mass density (308.15 K, x1 = 0.1886): 1168.18 ± 0.62 kg/m3
mass density (308.15 K, x1 = 0.337): 1301.14 ± 0.8 kg/m3
mass density (308.15 K, x1 = 0.4724): 1374.57 ± 0.86 kg/m3
mass density (308.15 K, x1 = 0.652): 1437.1 ± 0.88 kg/m3
mass density (308.15 K, x1 = 0.8245): 1477.35 ± 0.9 kg/m3
mass density (308.15 K, x1 = 0.924): 1495.13 ± 0.91 kg/m3
mass density (308.15 K, x1 = 1): 1506.8 ± 0.92 kg/m3
mass density (313.15 K, x1 = 0.0533): 925.26 ± 0.54 kg/m3
mass density (313.15 K, x1 = 0.1886): 1162.68 ± 0.74 kg/m3
mass density (313.15 K, x1 = 0.337): 1296.39 ± 0.81 kg/m3
mass density (313.15 K, x1 = 0.4724): 1369.51 ± 0.86 kg/m3
mass density (313.15 K, x1 = 0.652): 1432.02 ± 0.88 kg/m3
mass density (313.15 K, x1 = 0.8245): 1472.28 ± 0.89 kg/m3
mass density (313.15 K, x1 = 0.924): 1490.11 ± 0.9 kg/m3
mass density (313.15 K, x1 = 1): 1501.74 ± 0.91 kg/m3
